Experimental data reported in US20230295130A1, “COMPOUND USEFUL AS CDK7 KINASE INHIBITOR AND USE THEREOF” (TYK MEDICINES, INC., priority 2020, published 2023).

target: CDK7/Cyclin H/MAT1 kinase (Homo sapiens (Human), UniProt P50613); test: Enzyme activity test, mobility shift assay (Table 1); format: biochemical; conditions: 2 mM ATP; pre-incubated 0 and 60 minutes
Experimental: IC50 values of the compounds for CDK7 kinase were detected in Wuxi Biortus Biosciences Co. Ltd.
The compound powder was dissolved in 100% DMSO to prepare a 10 mM storage solution. The storage solution was further diluted to 0.5 mM as the initial concentration, and continuously diluted 3 times to obtain 10 compound solutions with different concentrations. The compound and enzyme were pre-incubated for 0 minutes and 60 minutes, respectively, using duplicate detection.
was used as a positive control, and Mobility shift assay method was used to detect CDK kinase (such as CDK7, CDK9, CDK12 and CDK2) activity of the compounds.

Sequence of CDK7/Cyclin H/MAT1 kinase (P50613 whole entry): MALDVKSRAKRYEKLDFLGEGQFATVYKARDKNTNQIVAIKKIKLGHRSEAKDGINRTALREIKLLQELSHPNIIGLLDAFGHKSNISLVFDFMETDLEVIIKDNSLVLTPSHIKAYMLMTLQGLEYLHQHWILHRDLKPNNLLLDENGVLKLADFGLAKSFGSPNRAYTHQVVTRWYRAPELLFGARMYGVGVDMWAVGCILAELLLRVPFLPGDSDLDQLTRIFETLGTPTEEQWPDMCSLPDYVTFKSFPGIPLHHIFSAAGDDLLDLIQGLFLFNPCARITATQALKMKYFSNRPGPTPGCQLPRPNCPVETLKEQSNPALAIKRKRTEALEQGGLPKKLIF
Sequence of CDK7/Cyclin H/MAT1 kinase (P51946 whole entry partner): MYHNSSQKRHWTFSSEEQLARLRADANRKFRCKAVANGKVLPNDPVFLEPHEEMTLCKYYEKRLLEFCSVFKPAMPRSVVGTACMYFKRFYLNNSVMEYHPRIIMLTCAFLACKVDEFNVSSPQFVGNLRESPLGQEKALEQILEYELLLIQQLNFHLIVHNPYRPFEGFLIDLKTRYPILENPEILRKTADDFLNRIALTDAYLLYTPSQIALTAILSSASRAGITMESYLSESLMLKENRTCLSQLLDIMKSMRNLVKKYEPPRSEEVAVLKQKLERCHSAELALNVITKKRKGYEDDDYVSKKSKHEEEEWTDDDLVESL
Sequence of CDK7/Cyclin H/MAT1 kinase (P51948 whole entry partner): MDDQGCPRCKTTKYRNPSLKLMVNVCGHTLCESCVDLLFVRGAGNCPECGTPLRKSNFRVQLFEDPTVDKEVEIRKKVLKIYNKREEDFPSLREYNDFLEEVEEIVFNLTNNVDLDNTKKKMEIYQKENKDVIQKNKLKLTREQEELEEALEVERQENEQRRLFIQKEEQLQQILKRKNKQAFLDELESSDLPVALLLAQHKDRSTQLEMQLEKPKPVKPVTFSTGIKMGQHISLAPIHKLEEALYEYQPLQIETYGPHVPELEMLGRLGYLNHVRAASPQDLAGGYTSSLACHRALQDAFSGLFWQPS

Q: How did the IC50 turn out when `COC(=O)Nc1ccc2c(-c3nc(N[C@@H]4CC[C@@H](N)C4)ncc3C(F)(F)F)c[nH]c2c1Br` [Example T-56] was run?
A: 50 to 500 nM

Q: With `COC(=O)Nc1ccc2c(-c3nc(N[C@H]4CC[C@@H](N)C4)ncc3C(F)(F)F)c[nH]c2c1Br` [Example T-53] as the compound, how does the IC50 read?
A: > 500 nM

Q: For `COC(=O)Nc1ccc2c(-c3nc(N[C@@H]4CCNC4)ncc3C(F)(F)F)c[nH]c2c1Br` [Example T-61], which IC50 is on record?
A: 50 to 500 nM

Q: Which IC50 does the source give for `COC(=O)Nc1ccc2c(-c3nc(N[C@@H]4CNCC(C)(C)C4)ncc3C(F)(F)F)c[nH]c2c1C(F)(F)F` [Example T-101] here?
A: < 50 nM

Q: How did the IC50 turn out when `COC(=O)Nc1ccc2c(-c3nc(N[C@H]4CCCN(C)C4)ncc3C(F)(F)F)c[nH]c2c1C1CC1` [Example T-174] was run?
A: < 50 nM

Q: Which IC50 does the source give for `COC(=O)Nc1ccc2c(-c3nc(N[C@H]4CCCN(C)C4)ncc3C(F)(F)F)c[nH]c2c1OC` [Example T-167] here?
A: < 50 nM

Q: How did the IC50 turn out when `COC(=O)Nc1ccc2c(-c3nc(N[C@H]4CCCN(C)C4)ncc3C(F)(F)F)c[nH]c2c1C(C)(F)F` [Example T-171] was run?
A: < 50 nM

Q: For `COC(=O)Nc1ccc2c(-c3nc(N[C@H]4CCC(C)(C)NC4)ncc3C(F)(F)F)c[nH]c2c1OC1CCC1` [Example T-93], which IC50 is on record?
A: < 50 nM

Q: How did the IC50 turn out when `COC(=O)Nc1ccc2c(-c3nc(N[C@H]4CCCNC4)ncc3Cl)c[nH]c2c1Br` [Example T-71] was run?
A: < 50 nM

Q: For `COC(=O)Nc1ccc2c(-c3nc(N[C@H]4CC[C@H](C)NC4)ncc3C(F)(F)F)c[nH]c2c1Br` [Example T-144], which IC50 is on record?
A: 50 to 500 nM

Q: `O=C1OCCN1c1ccc2c(-c3nc(N[C@H]4CCNC4)ncc3C(F)(F)F)c[nH]c2c1Br` [Example T-46] was tested. Which IC50 did it give?
A: 50 to 500 nM

Q: `COC(=O)Nc1ccc2c(-c3nc(N[C@H]4CCC[C@H]4N)ncc3C(F)(F)F)c[nH]c2c1Br` [Example T-59] was tested. Which IC50 did it give?
A: 50 to 500 nM

Q: `COC(=O)N(C)c1ccc2c(-c3nc(N[C@H]4CCCNC4)ncc3C(F)(F)F)c[nH]c2c1C(C)(F)F` [Example T-170] was tested. Which IC50 did it give?
A: < 50 nM

Q: `COC(=O)N(C)c1ccc2c(-c3nc(N[C@H]4CCCNC4)ncc3C(F)(F)F)cn(C)c2c1Br` [Example T-41] was tested. Which IC50 did it give?
A: 50 to 500 nM

Q: `COC(=O)Nc1ccc2c(-c3nc(N[C@H]4CCC(C)(C)NC4)ncc3Cl)c[nH]c2c1Br` [Example T-72] was tested. Which IC50 did it give?
A: < 50 nM

Q: Which IC50 does the source give for `COC(=O)Nc1ccc2c(-c3nc(N[C@H]4CCC5(CC5)NC4)ncc3C(F)(F)F)c[nH]c2c1OC` [Example T-38] here?
A: < 50 nM

Q: `COC(=O)Nc1ccc2c(-c3nc(N[C@H]4CCCNC4)ncc3C(C)C)c[nH]c2c1Br` [Example T-78] was tested. Which IC50 did it give?
A: 50 to 500 nM

Q: How did the IC50 turn out when `COC(=O)Nc1ccc2c(-c3nc(N[C@H]4CCCNC4)ncc3C(F)(F)F)c[nH]c2c1C1CCOC1` (some centres unmarked) [Example T-83] was run?
A: < 50 nM

Q: For `COC(=O)Nc1ccc2c(-c3nc(N[C@H]4CC[C@H](C)NC4)ncc3C(F)(F)F)c[nH]c2c1OCC(F)(F)F` [Example T-152], which IC50 is on record?
A: 50 to 500 nM

Q: With `CN(C)C(=O)n1cc(-c2nc(N[C@H]3CCC(C)(C)NC3)ncc2C(F)(F)F)c2ccc(O)cc21` [Example T-33] as the compound, how does the IC50 read?
A: 50 to 500 nM

Q: Which IC50 does the source give for `CCOc1c(NC(=O)OC)ccc2c(-c3nc(N[C@H]4CCC(C)(C)NC4)ncc3C(F)(F)F)c[nH]c12` [Example T-95] here?
A: < 50 nM

Q: Which IC50 does the source give for `COC(=O)Nc1ccc2c(-c3nc(N[C@H]4CCC(C)(C)NC4)ncc3C(F)(F)F)c[nH]c2c1OC1CCCC1` [Example T-92] here?
A: 50 to 500 nM

Q: `COC(=O)Nc1ccc2c(-c3nc(N[C@@H]4CCC[C@H]4N)ncc3C(F)(F)F)c[nH]c2c1Br` [Example T-57] was tested. Which IC50 did it give?
A: 50 to 500 nM

Q: How did the IC50 turn out when `CCc1cnc(N[C@H]2CCCNC2)nc1-c1c[nH]c2c(Br)c(NC(=O)OC)ccc12` [Example T-77] was run?
A: < 50 nM

Q: With `COC(=O)Nc1ccc2c(-c3nc(N[C@H]4CC[C@H](C)NC4)ncc3C(F)(F)F)c[nH]c2c1Cl` [Example T-147] as the compound, how does the IC50 read?
A: 50 to 500 nM

Q: How did the IC50 turn out when `CCN[C@H]1CCC[C@@H]1Nc1ncc(C(F)(F)F)c(-c2c[nH]c3c(C(F)(F)F)c(NC(=O)OC)ccc23)n1` [Example T-117] was run?
A: < 50 nM

Q: `COC(=O)Nc1ccc2c(-c3nc(N[C@H]4CC[C@H](N)C4)ncc3C(F)(F)F)c[nH]c2c1Br` [Example T-54] was tested. Which IC50 did it give?
A: 50 to 500 nM

Q: For `COC(=O)Nc1ccc2c(-c3nc(N[C@H]4CCC(C)NC4)ncc3C(F)(F)F)c[nH]c2c1Cl` (some centres unmarked) [Example T-145], which IC50 is on record?
A: 50 to 500 nM

Q: With `COC(=O)N(C)c1ccc2c(-c3nc(N[C@H]4CCCNC4)ncc3C(F)(F)F)c[nH]c2c1C1CC1` [Example T-175] as the compound, how does the IC50 read?
A: < 50 nM

Q: `COC(=O)Nc1ccc2c(-c3nc(N[C@H]4CCCNC4)ncc3Cl)c[nH]c2c1OC(F)(F)F` [Example T-123] was tested. Which IC50 did it give?
A: < 50 nM

Q: Which IC50 does the source give for `COC(=O)Nc1ccc2c(-c3nc(N[C@H]4CCCNC4)ncc3C(F)(F)F)c[nH]c2c1C(C)(C)O` [Example T-157] here?
A: < 50 nM

Q: For `COC(=O)Nc1ccc2c(-c3nc(N[C@H]4CCCNC4)ncc3C)c[nH]c2c1Br` [Example T-76], which IC50 is on record?
A: < 50 nM

Q: Which IC50 does the source give for `COC(=O)Nc1ccc2c(-c3nc(N[C@H]4CCC(C)(C)NC4)ncc3Cl)c[nH]c2c1C(F)(F)F` [Example T-87] here?
A: < 50 nM

Q: With `CN(C)C(=O)Oc1ccc2c(-c3nc(N[C@H]4CCC(C)(C)NC4)ncc3C(F)(F)F)c[nH]c2c1` [Example T-32] as the compound, how does the IC50 read?
A: 50 to 500 nM

Q: `COC(=O)Nc1ccc2c(-c3nc(N[C@H]4CCC[C@H](O)C4)ncc3C(F)(F)F)c[nH]c2c1Br` [Compound T-50] was tested. Which IC50 did it give?
A: > 500 nM

Q: `COC(=O)Nc1ccc2c(-c3nc(N[C@H]4CCCNC4)ncc3C(F)(F)F)cn(C)c2c1Br` [Example T-40] was tested. Which IC50 did it give?
A: 50 to 500 nM

Q: Which IC50 does the source give for `COC(=O)Nc1ccc2c(-c3nc(N[C@H]4CCNC4)ncc3C(F)(F)F)c[nH]c2c1Br` [Example T-39] here?
A: 50 to 500 nM

Q: For `CCCOC(=O)Nc1ccc2c(-c3nc(N[C@H]4CCCNC4)ncc3C(F)(F)F)c[nH]c2c1Br` [Example T-45], which IC50 is on record?
A: 50 to 500 nM

Q: Which IC50 does the source give for `COC(=O)Nc1ccc2c(-c3nc(N[C@H]4CCC(C)(C)NC4)ncc3C(F)(F)F)c[nH]c2c1SC(C)C` [Example T-89] here?
A: < 50 nM

Q: With `COC(=O)Nc1ccc2c(-c3nc(N[C@H]4CCC(C)(C)NC4)ncc3C(F)(F)F)c[nH]c2c1CC(F)(F)F` [Example T-97] as the compound, how does the IC50 read?
A: < 50 nM

Q: With `O=C1OCCN1c1ccc2c(-c3nc(N[C@H]4CCCNC4)ncc3C(F)(F)F)c[nH]c2c1` [Example T-49] as the compound, how does the IC50 read?
A: < 50 nM

Q: For `COC(=O)Nc1ccc2c(-c3nc(N[C@H]4CCCN(C)C4)ncc3C(F)(F)F)c[nH]c2c1C(F)(F)F` [Example T-172], which IC50 is on record?
A: < 50 nM

Q: For `COC(=O)N(C)c1ccc2c(-c3nc(N[C@H]4CCC(C)(C)NC4)ncc3C(F)(F)F)c[nH]c2c1P(C)(C)=O` [Compound T-103], which IC50 is on record?
A: < 50 nM

Q: `COC(=O)Nc1ccc2c(-c3nc(N[C@H]4CCCNC4)ncc3C(F)(F)F)c[nH]c2c1OC(F)F` [Example T-121] was tested. Which IC50 did it give?
A: < 50 nM

Q: With `COC(=O)Nc1ccc2c(-c3nc(N[C@H]4CC=C(C)NC4)ncc3C(F)(F)F)c[nH]c2c1OC` [Example T-133] as the compound, how does the IC50 read?
A: 50 to 500 nM

Q: Which IC50 does the source give for `COC(=O)Nc1ccc2c(-c3nc(N[C@H]4CCC[C@H](O)C4)ncc3C(F)(F)F)c[nH]c2c1Br` [Example T-30] here?
A: > 500 nM

Q: Which IC50 does the source give for `COC(=O)Nc1ccc2c(-c3nc(N[C@H]4CCC(C)(C)NC4)ncc3C(F)(F)F)c[nH]c2c1OC(C)C` [Example T-94] here?
A: < 50 nM

Q: With `CC(=O)Nc1ccc2c(-c3nc(N[C@H]4CCCNC4)ncc3C(F)(F)F)c[nH]c2c1C(C)(C)O` [Example T-158] as the compound, how does the IC50 read?
A: < 50 nM

Q: With `COC(=O)Nc1ccc2c(-c3nc(N[C@H]4CCCN(C)C4)ncc3C(F)(F)F)c[nH]c2c1OC(F)F` [Example T-173] as the compound, how does the IC50 read?
A: < 50 nM

Q: With `COC(=O)Nc1ccc2c(-c3nc(N[C@@H]4CCC[C@@H]4N)ncc3C(F)(F)F)c[nH]c2c1Br` [Example T-58] as the compound, how does the IC50 read?
A: 50 to 500 nM
